Measured values: patent publication US11840686B2, “Modulation of prekallikrein (PKK) expression” (Ionis Pharmaceuticals, Inc., priority 2013, dated 2023)
Strand notation (5' to 3'): a small letter for the sugar, then the base; units joined by * are phosphorothioate-linked, units joined directly phosphodiester-linked; [ ] holds rarer units or linkages, { } end groups; capitals alone tell only the bases. e = 2'-O-(2-methoxyethyl) (MOE); k = constrained ethyl (cEt); [5mC] = 5-methylcytosine; d = 2'-deoxy (DNA)

Tested on: human PKK mRNA
Assay: Antisense inhibition of human PKK mRNA in HepaRG cells, 1,000 nM, MOE/deoxy/cEt oligonucleotides (Example 3)
Assay type: cell-based
Details: HepaRG cells, electroporation with 1,000 nM antisense oligonucleotide, approximately 24 hours, primer probe set RTS3454, relative to untreated control cells; experiment of Table 23
Outline: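 Readout is percent PKK mRNA reduction against untreated controls, by real-time PCR (RTS3454) adjusted for total RNA via RIBOGREEN. Oligonucleotides, phosphorothioate gapmers of 16 nucleosides with cEt, MOE and deoxy sugars, were delivered at 1,000 nM by electroporation to 20,000 HepaRG cells/well for roughly 24 h.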

Substance | % inhibition
547931 (eG*eT*kG*dA*dT*dA*dG*dG*dT*dG*d[5mC]*dA*dG*kA*kT*eG; antisense) [compound 547931] | 58%
547932 (e[5mC]*eG*kA*dT*dT*dT*dT*d[5mC]*d[5mC]*dA*dT*dA*d[5mC]*kA*kT*eT; antisense) [compound 547932] | 33%
547933 (eT*e[5mC]*kG*dA*dT*dT*dT*dT*d[5mC]*d[5mC]*dA*dT*dA*k[5mC]*kA*eT; antisense) [compound 547933] | 44%
547934 (e[5mC]*eT*k[5mC]*dG*dA*dT*dT*dT*dT*d[5mC]*d[5mC]*dA*dT*kA*k[5mC]*eA; antisense) [compound 547934] | 38%
547935 (eA*e[5mC]*kT*d[5mC]*dG*dA*dT*dT*dT*dT*d[5mC]*d[5mC]*dA*kT*kA*e[5mC]; antisense) [compound 547935] | 27%
547936 (eG*eA*k[5mC]*dT*d[5mC]*dG*dA*dT*dT*dT*dT*d[5mC]*d[5mC]*kA*kT*eA; antisense) [compound 547936] | 44%
547937 (eT*eG*kT*dG*dA*d[5mC]*dT*d[5mC]*dG*dA*dT*dT*dT*kT*k[5mC]*e[5mC]; antisense) [compound 547937] | 56%
547938 (eT*eT*kG*dT*dG*dA*d[5mC]*dT*d[5mC]*dG*dA*dT*dT*kT*kT*e[5mC]; antisense) [compound 547938] | 56%
547939 (eT*eT*kT*dG*dT*dG*dA*d[5mC]*dT*d[5mC]*dG*dA*dT*kT*kT*eT; antisense) [compound 547939] | 70%
547940 (eT*eT*kT*d[5mC]*dT*dT*dT*dG*dT*dG*dA*d[5mC]*dT*k[5mC]*kG*eA; antisense) [compound 547940] | 71%
547941 (eG*eT*kG*dT*dG*d[5mC]*d[5mC]*dA*d[5mC]*dT*dT*dT*d[5mC]*kA*kG*eA; antisense) [compound 547941] | 66%
547944 (eA*e[5mC]*kT*dT*dG*dG*dT*dG*dT*dG*d[5mC]*d[5mC]*dA*k[5mC]*kT*eT; antisense) [compound 547944] | 54%
547945 (eA*eA*k[5mC]*dT*dT*dG*dG*dT*dG*dT*dG*d[5mC]*d[5mC]*kA*k[5mC]*eT; antisense) [compound 547945] | 62%
547949 (eG*eT*kG*dT*dT*dT*dT*d[5mC]*dT*dT*dG*dA*dG*kG*kA*eG; antisense) [compound 547949] | 6%
547950 (eG*eG*kT*dG*dT*dT*dT*dT*d[5mC]*dT*dT*dG*dA*kG*kG*eA; antisense) [compound 547950] | 49%
547951 (eA*eG*kA*dT*dA*dT*dG*dG*dT*dG*dT*dT*dT*kT*k[5mC]*eT; antisense) [compound 547951] | 25%
547952 (e[5mC]*eA*kG*dA*dT*dA*dT*dG*dG*dT*dG*dT*dT*kT*kT*e[5mC]; antisense) [compound 547952] | 46%
547953 (e[5mC]*eT*kA*dT*dA*dT*d[5mC]*d[5mC]*dA*dG*dA*dT*dA*kT*kG*eG; antisense) [compound 547953] | 16%
547954 (eT*eA*kA*dA*dA*dG*dG*d[5mC]*dT*dA*dT*dA*dT*k[5mC]*k[5mC]*eA; antisense) [compound 547954] | 36%

Substance | % inhibition
547956 (eG*eT*kT*dA*dA*dA*dA*dG*dG*d[5mC]*dT*dA*dT*kA*kT*e[5mC]; antisense) [compound 547956] | 13%
547957 (eG*eG*kT*dT*dA*dA*dA*dA*dG*dG*d[5mC]*dT*dA*kT*kA*eT; antisense) [compound 547957] | 6%
547958 (e[5mC]*eA*kG*dG*dT*dT*dA*dA*dA*dA*dG*dG*d[5mC]*kT*kA*eT; antisense) [compound 547958] | 57%
547959 (eG*e[5mC]*kA*dG*dG*dT*dT*dA*dA*dA*dA*dG*dG*k[5mC]*kT*eA; antisense) [compound 547959] | 60%
547960 (eT*eG*k[5mC]*dA*dG*dG*dT*dT*dA*dA*dA*dA*dG*kG*k[5mC]*eT; antisense) [compound 547960] | 40%
547961 (eT*eT*kG*d[5mC]*dA*dG*dG*dT*dT*dA*dA*dA*dA*kG*kG*e[5mC]; antisense) [compound 547961] | 5%
547962 (antisense eT*eT*kT*dG*d[5mC]*dA*dG*dG*dT*dT*dA*dA*dA*kA*kG*eG) [compound 547962] | 16%
547963 (antisense eG*eT*kT*d[5mC]*dA*dG*dG*dT*dA*dA*dA*dG*dT*kT*k[5mC]*eT) [compound 547963] | 22%
547964 (antisense eG*eG*kT*dT*d[5mC]*dA*dG*dG*dT*dA*dA*dA*dG*kT*kT*e[5mC]) [compound 547964] | 0%
547965 (antisense eG*eG*kG*dT*dT*d[5mC]*dA*dG*dG*dT*dA*dA*dA*kG*kT*eT) [compound 547965] | 29%
547966 (antisense eA*eG*kG*dG*dT*dT*d[5mC]*dA*dG*dG*dT*dA*dA*kA*kG*eT) [compound 547966] | 13%
547967 (antisense eG*eG*k[5mC]*dA*dG*dG*dG*dT*dT*d[5mC]*dA*dG*dG*kT*kA*eA) [compound 547967] | 25%
547968 (antisense eT*eT*kA*dG*dA*dA*dT*dG*dG*d[5mC]*dA*dG*dG*kG*kT*eT) [compound 547968] | 37%
547969 (antisense eT*e[5mC]*k[5mC]*d[5mC]*dG*dG*dG*dT*dA*dA*dA*dT*dT*kT*kT*eA) [compound 547969] | 0%
547970 (antisense e[5mC]*eT*k[5mC]*d[5mC]*d[5mC]*dG*dG*dG*dT*dA*dA*dA*dT*kT*kT*eT) [compound 547970] | 42%
547972 (antisense eT*e[5mC]*kA*dA*d[5mC]*dT*d[5mC]*d[5mC]*d[5mC]*dG*dG*dG*dT*kA*kA*eA) [compound 547972] | 49%
547973 (antisense eA*eA*kG*dT*d[5mC]*dA*dA*d[5mC]*dT*d[5mC]*d[5mC]*d[5mC]*dG*kG*kG*eT) [compound 547973] | 62%
547974 (antisense eA*eA*kA*dG*dT*d[5mC]*dA*dA*d[5mC]*dT*d[5mC]*d[5mC]*d[5mC]*kG*kG*eG) [compound 547974] | 52%
547975 (antisense e[5mC]*eA*kA*dA*dG*dT*d[5mC]*dA*dA*d[5mC]*dT*d[5mC]*d[5mC]*k[5mC]*kG*eG) [compound 547975] | 44%

Substance | % inhibition
547976 (antisense e[5mC]*e[5mC]*kA*dA*dA*dG*dT*d[5mC]*dA*dA*d[5mC]*dT*d[5mC]*k[5mC]*k[5mC]*eG) [compound 547976] | 49%
547977 (antisense e[5mC]*e[5mC]*kT*d[5mC]*d[5mC]*dA*dA*dA*dG*dT*d[5mC]*dA*dA*k[5mC]*kT*e[5mC]) [compound 547977] | 57%
547978 (antisense e[5mC]*eT*kT*dG*dG*d[5mC]*dA*dA*dA*d[5mC]*dA*dT*dT*k[5mC]*kA*e[5mC]) [compound 547978] | 71%
547980 (antisense eA*eA*kG*dT*d[5mC]*dT*d[5mC]*dT*dT*dG*dG*d[5mC]*dA*kA*kA*e[5mC]) [compound 547980] | 54%
547981 (antisense eT*e[5mC]*kT*dT*dT*dG*dT*dG*d[5mC]*dA*dA*dG*dT*k[5mC]*kT*e[5mC]) [compound 547981] | 76%
547982 (antisense eA*eA*kT*d[5mC]*dA*dT*d[5mC]*dT*dT*dT*dG*dT*dG*k[5mC]*kA*eA) [compound 547982] | 54%
547983 (antisense eG*eA*kA*dT*d[5mC]*dA*dT*d[5mC]*dT*dT*dT*dG*dT*kG*k[5mC]*eA) [compound 547983] | 56%
547984 (antisense e[5mC]*eG*kA*dA*dT*d[5mC]*dA*dT*d[5mC]*dT*dT*dT*dG*kT*kG*e[5mC]) [compound 547984] | 55%
547985 (antisense eG*e[5mC]*kG*dA*dA*dT*d[5mC]*dA*dT*d[5mC]*dT*dT*dT*kG*kT*eG) [compound 547985] | 63%
547986 (antisense e[5mC]*eA*kG*d[5mC]*dG*dA*dA*dT*d[5mC]*dA*dT*d[5mC]*dT*kT*kT*eG) [compound 547986] | 63%
547987 (antisense eA*e[5mC]*kA*dG*d[5mC]*dG*dA*dA*dT*d[5mC]*dA*dT*d[5mC]*kT*kT*eT) [compound 547987] | 64%
547988 (antisense eT*eG*kA*d[5mC]*dA*dG*d[5mC]*dG*dA*dA*dT*d[5mC]*dA*kT*k[5mC]*eT) [compound 547988] | 56%
547989 (antisense e[5mC]*eT*kG*dA*d[5mC]*dA*dG*d[5mC]*dG*dA*dA*dT*d[5mC]*kA*kT*e[5mC]) [compound 547989] | 66%
547990 (antisense eA*e[5mC]*kT*dG*dA*d[5mC]*dA*dG*d[5mC]*dG*dA*dA*dT*k[5mC]*kA*eT) [compound 547990] | 58%
547991 (antisense eT*eA*k[5mC]*dA*dG*dT*d[5mC]*dT*dT*d[5mC]*dT*dG*dG*kG*kA*eG) [compound 547991] | 0%
547992 (antisense e[5mC]*e[5mC]*kT*dT*dA*d[5mC]*dA*dG*dT*d[5mC]*dT*dT*d[5mC]*kT*kG*eG) [compound 547992] | 17%
547993 (antisense eT*eA*kG*dA*dT*dA*dA*dT*d[5mC]*dT*dT*dA*dA*kG*kA*eA) [compound 547993] | 26%
547994 (antisense e[5mC]*e[5mC]*kA*dT*d[5mC]*d[5mC]*dA*dT*dA*dG*dA*dT*dA*kA*kT*e[5mC]) [compound 547994] | 53%
